# Test results taken from a melting point compilation (Tetko et al.; mined from patent text by program, amines drawn as free bases though some values may be those of a salt).
row,Compound,melting point
1,CS(=O)(=O)N1CCC(C(CS(=O)(=O)c2ccc(Oc3ccc(OC(F)(F)F)cc3)cc2)N(O)C=O)CC1 (stereo not given),178 to 179 °C
2,CCCCn1cnc2c(OCc3cccs3)nc(Nc3ccc(OCC)nc3)nc21,112 to 114 °C
3,COc1cccc2c1nc(C(F)F)n2-c1nc(N2CCNCC2)nc(N2CC3CCC(C2)O3)n1,221 to 223 °C
4,COc1cc2cc(-c3c(F)cccc3F)sc2c(Cl)c1Cl,173 to 174 °C
5,C=C(C)n1c(=O)n(CCN2CCC(N(C)C(=O)c3ccccc3)CC2)c2ccccc21,120 to 122 °C
6,CCC[C@H](C)C(=O)O[C@H]1C[C@H](O)C=C2C=C[C@H](C)[C@H](CC[C@@H]3C[C@@H](O)CC(=O)O3)[C@H]21,134 °C
7,CC(C)(C=CBr)C(=O)Nc1ccc(Cl)cc1,134 to 135 °C
8,CCCCNc1nc(C)c(C(=O)c2ccc(N)c(N)c2)s1,127 to 130 °C
9,CC(C)S(=O)(=O)c1ccc(S(=O)(=O)C(C)C)nc1,181 °C
10,CCNC(=O)Cc1cccc([N+](=O)[O-])c1,115 to 117 °C
11,COC(=O)C(Oc1cc(OCc2ccc3ncoc3c2)ccc1C#N)c1ccccc1C (racemic),157 to 159 °C
12,Cc1cc(C)c2ncc(NC(=O)C=Cc3ccc(O)cc3)c(-c3ccccc3Cl)c2c1,228 to 230 °C
13,O=[N+]([O-])c1cc(F)cc2c1OCCC2,48 to 50 °C
14,NC(=O)N1C(=O)C(=C(OC(=O)C=CC(=O)O)c2cccs2)c2cc(F)c(Cl)cc21,229 to 232 °C
15,Cc1c(C2=CCC(c3ccccc3)(N(C)C)CC2)[nH]c2ccc(F)cc12 (stereo not given),171 to 175 °C
16,O=P(c1ccccc1)(c1ccccc1)c1ccc(P(=O)(c2ccccc2)c2ccccc2)nn1,248 to 252 °C
17,Cc1c(Sc2ccc(Cl)cc2)c2cc(NS(C)(=O)=O)ccc2n1CC(=O)O,214 °C
18,O=C(O)c1ccccc1Nc1ccc(Cl)cc1[N+](=O)[O-],235 to 247 °C
19,O=C(O)Cc1ccc(NC(=O)C(Cn2ccnc2)NS(=O)(=O)c2ccc(F)cc2)cc1 (racemic),162 to 165 °C
20,COc1ccc(CSc2cnccc2C#N)cc1,80 to 81 °C
21,Cc1ccc2c(c1)C(C)(Cl)C(=S)N2 (stereo not given),185 to 187 °C
22,Clc1ccc2c(c1)C(=C1CCN(CC3CCC3)CC1)c1ccccc1S2,180 to 182 °C
23,CN1CCC(c2nn(-c3ccc(C(F)(F)F)cc3)c3ccc(F)cc23)CC1,126 to 128 °C
24,CC(C)(C)c1cc(C(=O)c2cccs2)cc(CN(C2CCCCC2)C2CCCCC2)c1O,161 to 162 °C

row,Compound,melting point
1,CCOC(=O)C(=O)CC(=O)N1CCOCC1,60 °C
2,O=C1CCNc2cc(Cl)c(F)cc21,192 to 194 °C
3,O=C(O)CN1C(=O)C=CC1=O,110 °C
4,O=C(Nc1ccc(-n2nc(C(F)(F)F)cc2C(F)(F)F)cc1)c1ccoc1,206 to 207 °C
5,O=C1COc2cc(Sc3ccc(O)cc3)ccc2N1,156 to 157 °C
6,CCCCCCCCCCCCCCCCCCOCC(COC(c1ccccc1)(c1ccccc1)c1ccccc1)OC(=O)N1CCOCC1 (stereo not given),78 to 79 °C
7,CCOC1=Nc2ccc(Cl)cc2C(c2ccccc2Cl)=NC1OC (stereo not given),110 to 113 °C
8,Cc1cc(O)n2nc(S(=O)(=O)Nc3c(Cl)ccc(C)c3Cl)nc2n1,346 to 347 °C
9,NC(=O)C(c1ccc(Cl)cc1)c1ncc(C(F)(F)F)cc1Cl (stereo not given),135 to 136 °C
10,O=C(Nc1ccccc1Oc1ccc(C(=O)O)c(C(=O)O)c1)c1cccc([N+](=O)[O-])c1,184 to 190 °C
11,O=C(OCCCl)c1ccccc1CS(=O)(=O)Cl,66 to 67 °C
12,CCOC(=O)CN(C)S(=O)(=O)c1ccsc1C(=O)OC,84 to 85 °C
13,CCN(c1ccc(SC)cc1[N+](=O)[O-])S(=O)(=O)c1ccc(C)cc1,135 to 136 °C
14,Cc1cc(CCCCCOc2c(Cl)cc(C3=NCCO3)cc2Br)on1,41 to 42 °C
15,COc1ccc(CC(=O)c2ccc(OC)c(F)c2)cc1F,151 to 152 °C
16,COC(=O)c1ccc(Cl)cc1NS(C)(=O)=O,126 to 128 °C
17,COC(=O)CCC#Cc1cc(Cl)ccc1NS(=O)(=O)c1ccc2c(c1)CCN2C(C)=O,154 °C
18,CCCCCCCCCCC[C@H](CC(=O)N[C@@H](CO)C(=O)OCc1ccccc1)OC(=O)CCCCCC,46 to 48 °C
19,N#CCCNC(=O)c1cccc(-c2cccc3oc(Cc4ccc(F)c(Cl)c4)cc23)c1,130 to 131 °C
20,FC(F)Oc1ccc2c(Cc3c(Cl)cncc3Cl)nnc(-n3cncn3)c2c1,220 to 224 °C
21,OCCC[C@H]1OC[C@H](c2ccc(Cl)c3ccccc32)CO1,127 to 129 °C
22,O=C1C(c2cc3c(cc2O)OCC3)c2cc(F)ccc2N1C(c1ccccc1)c1ccccc1 (stereo not given),179 to 181 °C
23,COCCC(=O)N[C@H]1CC[C@H](CCN2CCC(c3cccc4c3CCO4)CC2)CC1,182 °C

# The next lines start with the values.
row,melting point,Compound
1,249 to 251 °C,CCN1c2ncccc2C(=O)Nc2c(C)cc(OC)nc21
2,228 to 230 °C,Cc1oc(-c2ccccc2)nc1CCC(=O)c1ccc(C=C2SC(=O)NC2=O)nc1
3,172 to 174 °C,CC(=O)NNC(=O)c1ccccc1
4,75 °C,CC(C)(C)c1ccc(S(=O)(=O)N2c3ccccc3C[C@H]2C(=O)NCc2ccc(OCCC(=O)O)cc2)cc1
5,194 to 197 °C,Cc1cccc(OC(=O)C(=O)c2c[nH]c3ccccc23)c1
6,289 to 290 °C,N#CC(C(=O)Nc1cccc(Br)c1)C(=O)c1nn(-c2ccccc2)c2c1Cc1ccccc1-2 (stereo not given)
7,185 to 186 °C,O=C1OCCN1CCN1C(=O)C2(COc3cc4c(cc32)CCO4)c2ccccc21 (stereo not given)
8,112 to 115 °C,Cn1c(C(F)(F)F)cc(=O)n(-c2cc(OC(=O)Oc3ccccc3)c(Cl)cc2F)c1=O
9,100 °C,C=CCn1c(=O)n(-c2ccc3c(c2)OCO3)c2ncccc21
10,135 to 138 °C,CN(O)C(=O)Cc1ccccc1Nc1c(Cl)cccc1Cl
11,53 to 57 °C,O=C(C=Cc1ccc(F)c(F)c1)OCCc1ccccc1
12,82.5 °C,Cc1ccc(S(=O)(=O)N(Cc2ccccc2)N(C)C(=O)C2CC(S)CN2S(=O)(=O)c2ccc3ccccc3c2)cc1 (stereo not given)
13,123 to 126 °C,COc1cccc(C2C(CO)CC(=O)N2c2ccccc2)c1 (stereo not given)
14,96 to 97 °C,CC(C)CON(Cc1ccc(F)cc1)C(=O)C1=C(O)C(=O)N(C)C1
15,235 to 239 °C,Cc1nc(Nc2ccccc2)sc1C(=O)c1ccc(N)c([N+](=O)[O-])c1
16,175 to 177 °C,COc1nc(C)nc(NC(=O)NS(=O)(=O)Cc2ccccc2-c2nnc(SC)o2)n1
17,208 to 210 °C,CC1c2ccccc2CN1NC(=O)c1ccc(Cl)c(S(N)(=O)=O)c1 (stereo not given)
18,224 to 227 °C,CCc1ccc(Br)c(CC)c1-n1cncc1C(=O)O
19,181 to 183 °C,O=C(NNS(=O)(=O)c1ccccc1)c1cc2cc(Cl)ccc2o1
20,152 to 154 °C,CCOC(=O)COc1ccc2c(=O)c3c(oc2c1)C(=Cc1ccccc1)CC3
21,218 to 219 °C,Cn1cc2c(n1)c(N)nc1ccccc12
22,160 °C,CCn1nc(C(C)C)c2c1C(=O)NCC(c1ccccc1)=N2
23,106 to 107 °C,CCOC(=O)Cc1cccc(Oc2ccccc2)c1NC(C)=O
